Laboratory results taken from patent US8895561B2, “Compounds and methods for treating candidiasis and aspergillus infections” (Cellceutix Corporation, priority 2012, dated 2014).
≈ marks a conversion by molar mass, not a printed value.

Key:
Type in all cases: cell-based
[1] = system: C. albicans GDH2346 hyphal biofilm; experiment: Candida IC50 in the hyphal state / hyphal biofilm, MTS viability assay; details: 2-day hyphal biofilm cultures; for IC50: Candida albicans, 48 h, read-out: Anti-C. albicans GDH2346 Hyphal (IC50)
Description: Candida IC50s were determined by OD600 and fluorescence from vegetative cells and by MTS viability assay in the hyphal state. MICs were determined using a broth microdilution assay under standard CLSI conditions Bacteria strains: E. coli 25922 (EC), S. aureus 27660 (SA), E. faecalis 29212 (EF), P. aeruginosa 10145 (PA), and K. pneumoniae 13883 (KP). Cytotoxicity (EC50) was determined against mouse 3T3 fibroblasts, human transformed liver HepG2 cells, and human oral keratinocyte cell line, OKF6/TERT using an MTS viability assay. Candida IC50s<10 μg/mL, MICs<5 μg/mL and cytotoxicity EC50s>100 μM are indicated in green. MICs>5 μg/mL and cytotoxicity EC50s<100 μM are indicated in red. To form the biofilm, yeast were grown in RPMI/MOPS, 0.4% sucrose pH7.4 media supplemented with 10% FBS in tissue culture-treated flat bottom 96 well plates for 48 hours. The filamentous yeast cultures were then vigorously washed to remove any non-filamentous, non-attached yeast. The remaining attached filamentous biofilm yeast were incubated in saline containing serially diluted compounds for 24 hours. The cultures were aspirated to remove compound, rinsed and overlayed with RPMI/MOPS, 0.4% sucrose pH7.4 media. Biofilm viability was measured using a cell proliferation assay (CellTiter96 Aqueous Kit from Promega) and IC50s were determined using Prism GraphPad software (nonlinear fit, Table 3).

C. albicans GDH2346 [2] = experiment: Candida IC50, vegetative cells, by OD600 and fluorescence; details: vegetative cultures; for IC50: Candida albicans, GDH2346, read-out: Anti-C. albicans GDH2346 Vegetative (IC50)
Description: Candida IC50s were determined by OD600 and fluorescence from vegetative cells and by MTS viability assay in the hyphal state. MICs were determined using a broth microdilution assay under standard CLSI conditions Bacteria strains: E. coli 25922 (EC), S. aureus 27660 (SA), E. faecalis 29212 (EF), P. aeruginosa 10145 (PA), and K. pneumoniae 13883 (KP). Cytotoxicity (EC50) was determined against mouse 3T3 fibroblasts, human transformed liver HepG2 cells, and human oral keratinocyte cell line, OKF6/TERT using an MTS viability assay. Candida IC50s<10 μg/mL, MICs<5 μg/mL and cytotoxicity EC50s>100 μM are indicated in green. MICs>5 μg/mL and cytotoxicity EC50s<100 μM are indicated in red. Candida IC50s (CA) were determined by OD600 and fluorescence from vegetative cells. MICs were determined using a broth microdilution assay under standard CLSI conditions Bacteria strains: E. coli 25922 (EC), S. aureus 27660 (SA), E. faecalis 29212 (EF), P. aeruginosa 10145 (PA), and K. pneumoniae 13883 (KP). Cytotoxicity (EC50) was determined against mouse 3T3 fibroblasts and human transformed liver HepG2 cells using an MTS viability assay. For determination of anti-Candida IC50s, the method was modified by using RPMI/MOPS buffer pH 6.3 and by addition of FDGlu, a substrate for the yeast enzyme exoglucanase which is secreted during cell growth. This provides a fluorescent readout for cell growth which was used in addition to the traditional optical density measure of growth. OD600 and fluorescence were determined at 24 and 48 hours and the average of all 4 reads was used for the final IC50 determination.

[3] = system: C. dubliniensis (NCPF3949); experiment: Yeast MIC; details: Table 5; for MIC: Candida dubliniensis, NCPF3949, read-out: MIC C. dubliniensis
Description: (§1) Candida MIC assays were determined in accordance with CLSI guidelines M27-A3 using a clinically isolated C. albicans strain, GDH2346.50% human serum was added to determine activity in the presence of serum.
(§2) CLSI conditions Bacteria strains: clinical isolates; yeast strains: C. dubliniensis (NCPF3949), C. glabrata (ATCC 90030), C. krusei (ATCC 6258), C. parapsilosis (ATCC 22019), and C. tropicalis (ATCC 750). Cytotoxicity (EC50) was determined against mouse 3T3 fibroblasts, human transformed liver HepG2 cells, and human oral keratinocyte cell line, OKF6/TERT using an MTS viability assay.

[4] = system: C. parapsilosis (ATCC 22019); experiment: Yeast MIC; details: for MIC: Lodderomyces parapsilosis, ATCC22019
Description: as §1, §2

C. glabrata (ATCC 90030) = experiment: Yeast MIC; details: Table 5; for MIC: Nakaseomyces glabratus, ATCC90030, read-out: MIC C. glabrata
Description: as §1, §2

C. tropicalis (ATCC 750) = experiment: Yeast MIC; details: for MIC: Candida tropicalis, ATCC750
Description: as §1, §2

C. krusei (ATCC 6258) = experiment: Yeast MIC; details: for MIC: Pichia kudriavzevii, ATCC6258
Description: as §1, §2

C. albicans GDH2346 [5] = experiment: Candida MIC, CLSI M27-A3; details: Table 5; for MIC: Candida albicans, GDH2346, read-out: MIC C. albicans
Description: as §1

A. viscosis = experiment: Commensal bacteria MIC, broth microdilution
Description: (§3) Bacterial MICs were determined using a broth microdilution assay under standard
as §2

S. salivarius = experiment: Commensal bacteria MIC, broth microdilution; details: for MIC: Streptococcus salivarius
Description: as §3, §2

Structure (SMILES) | IC50 [1] [µg/mL] | IC50 (C. albicans GDH2346 [2]) [µg/mL] | MIC [3] [µg/mL] | MIC [4] [µg/mL] | MIC (C. glabrata (ATCC 90030)) [µg/mL] | MIC (C. tropicalis (ATCC 750)) [µg/mL] | MIC (C. krusei (ATCC 6258)) [µg/mL] | MIC (C. albicans GDH2346 [5]) [µg/mL] | MIC (A. viscosis) [µg/mL] | MIC (S. salivarius) [µg/mL] | MIC C. dubliniensis [3] [µg/mL] | MIC C. parapsilosis [4] [µg/mL] | MIC C. glabrata (C. glabrata (ATCC 90030)) [µg/mL] | MIC C. tropicalis (C. tropicalis (ATCC 750)) [µg/mL] | MIC C. krusei (C. krusei (ATCC 6258)) [µg/mL] | MIC C. albicans (C. albicans GDH2346 [5]) [µg/mL] | MIC A. viscosis (A. viscosis) [µg/mL] | MIC S. salivarius (S. salivarius) [µg/mL] | Anti-C. albicans GDH2346 Vegetative (IC50) (C. albicans GDH2346 [2]) [µg/mL] | Anti-C. albicans GDH2346 Hyphal (IC50) [1] [µg/mL]
NCCc1cc(Br)cc(C#Cc2cccc(C#Cc3cc(Br)cc(CCN)c3)c2)c1 [Compound 164] | 11 (≈ 21.1 µM) | 4.88 (≈ 9.34 µM) | – | – | – | – | – | – | – | – | – | – | – | – | – | – | – | – | – | –
N=C(N)NCCc1cccc(-c2ccc(-c3cccc(CCNC(=N)N)c3)s2)c1 [Compound 185] | 1 (≈ 2.46 µM) | 1.09 (≈ 2.68 µM) | 2 (≈ 4.92 µM) | 2 (≈ 4.92 µM) | 2 (≈ 4.92 µM) | 0.5 (≈ 1.23 µM) | 2 (≈ 4.92 µM) | 2 (≈ 4.92 µM) | 4 (≈ 9.84 µM) | 8 (≈ 19.7 µM) | – | – | – | – | – | – | – | – | – | –
N=C(N)NCCc1cccc(-c2ccc(-c3cccc(CCNC(=N)N)c3)cc2)c1 [Compound 186] | 1.4 (≈ 3.5 µM) | 1.03 (≈ 2.57 µM) | 2 (≈ 4.99 µM) | 2 (≈ 4.99 µM) | 2 (≈ 4.99 µM) | 0.5 (≈ 1.25 µM) | 2 (≈ 4.99 µM) | 2 (≈ 4.99 µM) | 4 (≈ 9.99 µM) | 8 (≈ 20 µM) | – | – | – | – | – | – | – | – | – | –

The next lines start with the values.

IC50 [1] [µg/mL] | IC50 (C. albicans GDH2346 [2]) [µg/mL] | MIC [3] [µg/mL] | MIC [4] [µg/mL] | MIC (C. glabrata (ATCC 90030)) [µg/mL] | MIC (C. tropicalis (ATCC 750)) [µg/mL] | MIC (C. krusei (ATCC 6258)) [µg/mL] | MIC (C. albicans GDH2346 [5]) [µg/mL] | MIC (A. viscosis) [µg/mL] | MIC (S. salivarius) [µg/mL] | MIC C. dubliniensis [3] [µg/mL] | MIC C. parapsilosis [4] [µg/mL] | MIC C. glabrata (C. glabrata (ATCC 90030)) [µg/mL] | MIC C. tropicalis (C. tropicalis (ATCC 750)) [µg/mL] | MIC C. krusei (C. krusei (ATCC 6258)) [µg/mL] | MIC C. albicans (C. albicans GDH2346 [5]) [µg/mL] | MIC A. viscosis (A. viscosis) [µg/mL] | MIC S. salivarius (S. salivarius) [µg/mL] | Anti-C. albicans GDH2346 Vegetative (IC50) (C. albicans GDH2346 [2]) [µg/mL] | Anti-C. albicans GDH2346 Hyphal (IC50) [1] [µg/mL] | Structure (SMILES)
– | – | – | – | – | – | – | – | – | – | 4 (≈ 10.2 µM) | 4 (≈ 10.2 µM) | 4 (≈ 10.2 µM) | 0.5 (≈ 1.28 µM) | 4 (≈ 10.2 µM) | 2 (≈ 5.12 µM) | 8 (≈ 20.5 µM) | 32 (≈ 81.9 µM) | 2.20 | – | N=C(N)NCCc1cccc(-c2ccc(-c3cccc(CCNC(=N)N)c3)o2)c1 [Compound 187]
– | – | – | – | – | – | – | – | – | – | 4 (≈ 9.81 µM) | 4 (≈ 9.81 µM) | 4 (≈ 9.81 µM) | 0.5 (≈ 1.23 µM) | 4 (≈ 9.81 µM) | 2 (≈ 4.91 µM) | 16 (≈ 39.3 µM) | 64 (≈ 157 µM) | 2.08 | 2.22 | N=C(N)NCCc1cccc(-c2cnc(-c3cccc(CCNC(=N)N)c3)s2)c1 [Compound 188]
